Results published in ChEMBL document CHEMBL4390659, “Molecular hybridization approach for phenothiazine incorporated 1,2,3-triazole hybrids as promising antimicrobial agents: Design, synthesis, molecular docking and in silico ADME studies” (Eur J Med Chem, 2019).
Values after ≈ are worked out from the molar mass of the structure shown.

What was measured:
[1] = tested on: Mycobacterium tuberculosis; test: Antibacterial activity against Mycobacterium tuberculosis H37Rv ATCC 27294 assessed as reduction in mycobacterial growth incubated for 5 days by MABA method; assay type: functional; settings: H37Rv ATCC 27294, 120 h
Escherichia coli = test: Antibacterial activity against Escherichia coli incubated for 24 hrs by agar dilution method; assay type: functional
Staphylococcus aureus = test: Antibacterial activity against Staphylococcus aureus incubated for 24 hrs by agar dilution method; assay type: functional
Pseudomonas aeruginosa = test: Antibacterial activity against Pseudomonas aeruginosa incubated for 24 hrs by agar dilution method; assay type: functional
[2] = tested on: Mycobacterium tuberculosis; test: Potency index, ratio of ciprofloxacin MIC to test compound MIC against Mycobacterium tuberculosis H37Rv ATCC 27294; assay type: functional
[3] = tested on: Mycobacterium tuberculosis; test: Potency index, ratio of streptomycin MIC to test compound MIC against Mycobacterium tuberculosis H37Rv ATCC 27294; assay type: functional
Vero = test: Cytotoxicity against African green monkey Vero cells assessed as reduction in cell viability incubated for 72 hrs by MTT assay; assay type: cell-based; settings: Chlorocebus sabaeus
[4] = Cytotoxicity against African green monkey Vero cells assessed as cell growth inhibition at 6.25 ug/ml incubated for 72 hrs by MTT assay relative to control; assay type: cell-based; settings: chlorocebus sabaeus, read-out: GI
[5] = Selectivity index, ratio of IC50 for African green monkey Vero cells to MIC for Mycobacterium tuberculosis H37Rv ATCC 27294; assay type: toxicity; settings: read-out: Selectivity Index

| SMILES | MIC [1] | MIC (Escherichia coli) [µg/mL] | MIC (Staphylococcus aureus) [µg/mL] | MIC (Pseudomonas aeruginosa) [µg/mL] | Ratio [2] | Ratio [3] | IC50 (Vero) [µg/mL] | inhibition at 72 h, 6.25 ug/ml [4] [%] | selectivity ratio [5] |
| --- | --- | --- | --- | --- | --- | --- | --- | --- | --- |
| CN1c2ccccc2Sc2cc(/C=N/OCc3cn(Cc4ccccc4F)nn3)ccc21 | 56.1 µM | 25 (≈ 56.1 µM) | 12.5 (≈ 28.1 µM) | 25 (≈ 56.1 µM) |  |  |  |  |  |
| CN1c2ccccc2Sc2cc(/C=N/OCc3cn(Cc4ccc(C#N)cc4)nn3)ccc21 | 27.6 µM | 25 (≈ 55.2 µM) | 12.5 (≈ 27.6 µM) | 25 (≈ 55.2 µM) |  |  |  |  |  |
| Cc1ccc(C(=O)N/N=C/c2ccc3c(c2)Sc2ccccc2N3Cc2cn(Cc3ccc(C#N)cc3)nn2)cc1 | 2.87 µM | 50 (≈ 90 µM) | 25 (≈ 45 µM) | 100 (≈ 180 µM) | 4 | 4 | 456 (≈ 821 µM) | 10.6 | 42.9 |
| CN1c2ccccc2Sc2cc(/C=N/OCc3cn(Cc4ccccc4)nn3)ccc21 | 58.4 µM | 100 (≈ 234 µM) | 50 (≈ 117 µM) | 50 (≈ 117 µM) |  |  |  |  |  |
| Cc1ccc(Cn2cc(CO/N=C/c3ccc4c(c3)Sc3ccccc3N4C)nn2)cc1 | 56.6 µM | 50 (≈ 113 µM) | 25 (≈ 56.6 µM) | 100 (≈ 226 µM) |  |  |  |  |  |
| NNC(=O)c1ccncc1 [ISONIAZID] | 3.12 µg/mL |  |  |  |  |  |  |  |  |
| CN1c2ccccc2Sc2cc(COCc3cn(Cc4ccc(F)cc4)nn3)ccc21 | 28.9 µM | 25 (≈ 57.8 µM) | 25 (≈ 57.8 µM) | 50 (≈ 116 µM) |  |  |  |  |  |
| Cc1ccc(Cn2cc(CN3c4ccccc4Sc4ccccc43)nn2)cc1 | 6.25 µg/mL | 100 (≈ 260 µM) | 50 (≈ 130 µM) | 100 (≈ 260 µM) |  |  |  |  |  |
| COc1ccc(Cn2cc(COCc3ccc4c(c3)Sc3ccccc3N4C)nn2)cc1 | 56.2 µM | 100 (≈ 225 µM) | 50 (≈ 112 µM) | 50 (≈ 112 µM) |  |  |  |  |  |
| CN1c2ccccc2Sc2cc(COCc3cn(Cc4ccccc4F)nn3)ccc21 | 28.9 µM | 25 (≈ 57.8 µM) | 25 (≈ 57.8 µM) | 50 (≈ 116 µM) |  |  |  |  |  |
| CN1c2ccccc2Sc2cc(/C=N/OCc3cn(Cc4ccc(F)cc4)nn3)ccc21 | 56.1 µM | 25 (≈ 56.1 µM) | 12.5 (≈ 28.1 µM) | 25 (≈ 56.1 µM) |  |  |  |  |  |
| CN1c2ccccc2Sc2cc(COCc3cn(Cc4ccc([N+](=O)[O-])cc4)nn3)ccc21 | 54.4 µM | 50 (≈ 109 µM) | 25 (≈ 54.4 µM) | 50 (≈ 109 µM) |  |  |  |  |  |
| c1ccc(Cn2cc(CN3c4ccccc4Sc4ccccc43)nn2)cc1 | 6.25 µg/mL | 50 (≈ 135 µM) | 50 (≈ 135 µM) | 100 (≈ 270 µM) |  |  |  |  |  |
| Cc1ccc(Cn2cc(COCc3ccc4c(c3)Sc3ccccc3N4C)nn2)cc1 | 58.3 µM | 100 (≈ 233 µM) | 50 (≈ 117 µM) | 100 (≈ 233 µM) |  |  |  |  |  |
| COc1ccc(Cn2cc(CO/N=C/c3ccc4c(c3)Sc3ccccc3N4C)nn2)cc1 | 54.6 µM | 100 (≈ 219 µM) | 50 (≈ 109 µM) | 100 (≈ 219 µM) |  |  |  |  |  |
| Fc1ccc(Cn2cc(CN3c4ccccc4Sc4ccccc43)nn2)cc1 | 3.12 µg/mL | 12.5 (≈ 32.2 µM) | 12.5 (≈ 32.2 µM) | 12.5 (≈ 32.2 µM) |  |  | 3800 (≈ 9790 µM) | 8.34 | 456 |
| O=C(O)c1cn(C2CC2)c2cc(N3CCNCC3)c(F)cc2c1=O [CIPROFLOXACIN] |  |  | 2 (≈ 6.04 µM) | 4 (≈ 12.1 µM) |  |  |  |  |  |
| NC(=O)c1cnccn1 [PYRAZINAMIDE] | 3.12 µg/mL |  |  |  |  |  |  |  |  |
| CN1c2ccccc2Sc2cc(COCc3cn(Cc4ccccc4)nn3)ccc21 | 60.3 µM | 50 (≈ 121 µM) | 50 (≈ 121 µM) | 100 (≈ 241 µM) |  |  |  |  |  |
| CN[C@@H]1[C@H](O[C@H]2[C@H](O[C@H]3[C@H](O)[C@@H](O)[C@H](N=C(N)N)[C@@H](O)[C@@H]3N=C(N)N)O[C@@H](C)[C@]2(O)C=O)O[C@@H](CO)[C@H](O)[C@H]1O [STREPTOMYCIN] | 6.25 µg/mL |  |  |  |  |  |  |  |  |
| CN1c2ccccc2Sc2cc(/C=N/OCc3cn(Cc4ccc([N+](=O)[O-])cc4)nn3)ccc21 | 52.9 µM | 50 (≈ 106 µM) | 25 (≈ 52.9 µM) | 100 (≈ 212 µM) |  |  |  |  |  |
| CN1c2ccccc2Sc2cc(COCc3cn(Cc4ccc(C#N)cc4)nn3)ccc21 | 28.4 µM | 25 (≈ 56.9 µM) | 12.5 (≈ 28.4 µM) | 25 (≈ 56.9 µM) |  |  |  |  |  |
